# Data: PMC12587545, “Noncytotoxic polymyxin derivatives enhance antibiotic action against multidrug-resistant Gram-negative bacteria” (Antimicrobial Agents and Chemotherapy, 2025)
# Positions of bridges follow the written chain, without caps; N, C: chain ends. Non-standard residues stand in square brackets, D forms with d. Residues, ends and D or L forms follow the SMILES beside them. *: point of attachment. Octanoyl = CCCCCCCC(=O)*; Dab = NCC[C@H](N)C(=O)O; Dap = NC[C@H](N)C(=O)O
# Experiments:
# [1] = tested on: K. pneumoniae
# Procedure: (§1) The bacterial isolates were acquired from ATCC or the Canadian Ward Surveillance (CANWARD) study ([56]). CANWARD isolates were collected from infected patients admitted to participating medical centers across Canada.
# (§2) The antibiotic or compound was serially diluted 2-fold in CAMHB on a 96-well plate and was incubated with equal volumes of bacterial inoculum overnight at 37°C. Wells containing only media were used as negative controls, and wells containing only bacteria were used as positive controls. Antibacterial activity was measured by the MIC, or the lowest concentration of agent required to inhibit visible bacterial growth. Turbidity was confirmed with a Molecular Devices (United States) EMax Plus microplate reader at a wavelength of 590 nm.
# [2] = tested on: P. aeruginosa
# Procedure: as §1, §2
# [3] = tested on: HK-2; assay type: cell-based, human; details: 48 h
# Procedure: (§3) Kidney cell lines, HK-2 (CRL-2190) and RPTEC/TERT1 (CRL-4031), and neural cell lines, U-87 MG (HTB-14) and SK-N-SH (HTB-11), were obtained from American Type Culture Collection (ATCC). HK-2 cells were cultured in T75 flasks with keratinocyte serum-free medium supplemented with bovine pituitary extract, human epidermal growth factor, and 2.5% FBS. RPTEC/TERT1 cells were cultured in T75 flasks with Dulbecco’s modified Eagle’s medium:F12 supplemented with the ATCC (United States) human telomerase reverse transcriptase immortalized RPTEC growth kit, G418 (0.1 mg/mL final concentration), and 2% FBS. Both U-87 MG and SK-N-SH cells were cultured in minimal essential media supplemented with 10% FBS. The cells were incubated in a humidified atmosphere at 5% CO2 and at 37°C.
# (§4) The cytotoxicity of the compounds toward the mammalian cell lines was assessed using the cell viability assay protocols as previously described ([29]). Designated wells in 96-well plates were seeded with HK-2 (5,000 cells), RPTEC/TERT1 (8,000 cells), U-87 MG (7,000 cells), or SK-N-SH (8,000 cells) in 50 µL. Blank wells received an identical volume of only media. After incubating the cells for 24 h, all wells were treated with varying concentrations of the compound and incubated for 48 h. Subsequently, PrestoBlue reagent (Invitrogen, United States) was added to the wells to a final concentration of 10% (vol/vol), and the plate was incubated for an additional 1 h. Fluorescence was measured with a SpectraMax M2 plate reader (Molecular Devices, United States), at excitation and emission wavelengths of 560 and 590 nm, respectively. Values from the blank wells were subtracted from the corresponding wells containing cells. The cell viability relative to the controls with vehicle was calculated and presented as mean ± standard deviation of at least two experiments with five replicates each. CC50 values were obtained using GraphPad Prism (version 10.4.1) by non-linear regression (four-parameter logistic fit).
# [4] = tested on: SK-N-SH; assay: Cell viability assay (PrestoBlue); assay type: cell-based; details: 24 h
# Procedure: as §3
# as §4, with “After incubating the cells for 24 h, all wells were treated with varying concentrations of the compound and incubated for 48 h.” left out
# [5] = tested on: U-87 MG; assay: Cell viability assay (PrestoBlue); assay type: cell-based; details: 24 h
# Procedure: as §3
# as §4, with “After incubating the cells for 24 h, all wells were treated with varying concentrations of the compound and incubated for 48 h.” left out
compound,measurement,setting,value
CCCCCCCC(=O)N[C@@H](CN)C(=O)N[C@H](C(=O)N[C@@H](CN)C(=O)N[C@H]1CCNC(=O)[C@H]([C@@H](C)O)NC(=O)[C@H](CN)NC(=O)[C@H](CN)NC(=O)[C@H](CC(C)C)NC(=O)[C@@H](Cc2ccccc2)NC(=O)[C@H](CN)NC1=O)[C@@H](C)O [Compound 1] (Octanoyl-[Dap]T[Dap][Dab][Dap][dF]L[Dap][Dap]T; lactam 4-C),MIC,[1],>128 µg/mL
same,MIC,[2],>128 µg/mL
same,CC50 in HK-2,[3],238.7 µM
same,cell viability,[4],exceeding 100%
same,cell viability,[5],exceeding 100%
